Blank lines part the entries; values can stand above or below the compound they belong to.
How the values were obtained:
[1] = Integrity assay under dynamic digestion conditions (LY mass transfer); type: in vitro ADME; settings: LiDo on PVDF; up to two hours
Procedure: HDM, GIT-0 and LiDo membranes were subjected to in situ lipolysis of the IIIB-MC LBF in a 6-well culture plate format. Transwell inserts (diameter of 24 mm) were used for polycarbonate filters, and inserts were made in-house to hold the PVDF filters (diameter of 25 mm). For these lipolysis experiments, a modified digestion medium with greater buffering capacity was used. The digestion medium contained 200 mM Tris-maleate in these experiments to maintain pH within 0.3 units of the initial value of the lipolysis buffer (pH 6.5) over one hour of digestion (Table S2, Supplementary Material), since no autotitration could be used in the setup. LBF was weighed into a glass tube, and 10 ml of this modified digestion medium spiked with 10.3 μl of LY in DMSO solution (10 mM) was added and vortexed. […]
GIT-0 and LiDo membranes were also evaluated in a large-scale (75 mm diameter) in-house developed lipolysis-permeation device named “ENA” ([19]) in order to explore whether these two lipid mixtures with theoretically similar compositions and production methods also yielded similar results. […]
LY presence was detected using fluorescence (Spark or Safire^2 plate readers, Tecan, Austria) at 428 and 536 nm wavelength for excitation and emission, respectively. […]

[2] = Integrity assay with static digest matrix (LY mass transfer); type: in vitro ADME; settings: GIT-0 membranes
Procedure: Six samples of 4 ml were taken during dispersion and digestion phases of single-compartment in vitro lipolysis (Fig. 1a) of a formulation over a period of 40 min. The formulation was of type IIIB-MC (medium chain length triglyceride component, 8–10 carbons) according to the Lipid Formulation Classification System (LFCS) ([27]), see Table I for composition. […] To visualize membrane integrity, Lucifer Yellow (LY) in DMSO solution was added to each sample to a final LY concentration of 10 μM and 0.1% DMSO. LY is highly hydrophilic; its permeation through intact lipid membranes should therefore be negligible. The sample tubes were then vortexed, and shaken at 450 rpm at 37°C until further use.
Digestion samples were dispensed (1.2 ml) into the donor compartments of Transwell inserts treated to form artificial membranes. Negative controls comprised only blank digestion medium or lipolysis buffer (both containing LY, 10 μM) in the donor compartment. Positive controls were untreated inserts composed of naked polycarbonate filters, or GIT-0 solution added to pre-wet filters (disrupts membrane formation). The receiver compartments contained 2 ml of either plain phosphate buffer (PB, 10 mM), Acceptor Sink Buffer (20 mM HEPES, 1% w/v SDS), or PB supplemented with 4% w/w bovine serum albumin (BSA). All receiver buffers were adjusted to pH 7.40.
From examination of mass transfer profiles, membrane damage was evaluated by Area Under the Curve (AUC) values of LY mass transfer over time. The criteria were that an LY AUC > 10 nmol min cm^−2 was considered to indicate major membrane disruption, while an LY AUC < 1 nmol min cm^−2 was considered to indicate an intact membrane.
LY presence was detected using fluorescence (Spark or Safire^2 plate readers, Tecan, Austria) at 428 and 536 nm wavelength for excitation and emission, respectively. Samples were diluted 1:2 in ice-cold acetonitrile and centrifuged (4°C, 2465 g for 20 min) to precipitate protein content.

[3] = In vitro lipolysis-permeation assay of fenofibrate-loaded LBFs in the ENA device (porcine pancreatin); type: in vitro ADME
Procedure: Three formulations representing LFCS types IIIA-MC, IIIA-LC (long chain fatty acid component), and type IV (Table I) were assayed for their performance using artificial membranes in the ENA device. No more than one week before the assay, excipients were heated to 37°C before being weighed into a glass vial. The vial was capped with argon, vortexed, and then shaken overnight (450 rpm, 37°C). The formulations were then loaded with fenofibrate (80 mg/g) in the same manner, and shaken until complete dissolution.
The loaded formulations were weighed separately and then dispensed into ENA donor compartments (Fig. 1b) that had been prefilled with digestion medium spiked with LY to 10 μM (0.1% DMSO). Samples were taken from both compartments during dispersion (0–10 min) and digestion (10–100 min). Samples from the donor compartment were immediately filtered through a hydrophilic nylon syringe filter (Whatman PuraDisc 13, pore size 0.1 μm) to separate precipitates and oil droplets from fenofibrate in free solution and in colloidal aggregates, using the same procedures as those described in Juenemann et al. and Stillhart et al. ([28],[29]). The syringe filters were then flushed through with room temperature acetonitrile to recover precipitated fenofibrate. […] Phases were instead separated through centrifugation (37°C, 21,000 g for 15 min) for these samples. Receiver compartment samples were then quantified using UPLC-MS, and donor samples using HPLC-UV.
Fenofibrate was analyzed using a UV-DAD coupled HPLC (1290 Infinity, Agilent Technologies) with a Zorbax Eclipse XDB-C18 column (4.6 × 100 mm, Agilent Technologies) kept at 40°C (injection volume 20 μl). The mobile phase consisted of sodium acetate buffer (25 mM, pH 5.0) in acetonitrile solution (2:8 v/v) with isocratic flow (1 ml/min). UV absorbance was monitored at a wavelength of 287 nm. The retention time was 3.32 min. Sample preparation consisted of 100x dilution in mobile phase and a centrifugation step (21,000 g, 15 min, 25°C) to purify the matrix. […]

[4] = parameters: method as in PMID 23500116, doi:10.1016/j.jddst.2016.06.013, PMID 28826878; settings: cited from earlier work
Caco-2 monolayer = experiment: Caco-2 based lipolysis-permeation assay in ENA (data re-analyzed from Keemink et al.); settings: average over formulations

LY permeation through membrane [1]: did not allow detectable levels
LY mass transfer AUC15-60 min ([2]; Fig. 2c, Acceptor Sink Buffer in receiver per legend, 30 min digestion sample): < LOQ
LY mass transfer AUC15-60 min ([2]; Fig. 2c, Acceptor Sink Buffer in receiver per legend, dispersion sample of IIIB-MC LBF): < LOQ
LY mass transfer AUC15-60 min ([2]; Fig. 2d, PB with 4% BSA in receiver per legend, 30 min digestion sample): < LOQ
LY mass transfer AUC15-60 min ([2]; Fig. 2d, PB with 4% BSA in receiver per legend, dispersion sample of IIIB-MC LBF): < LOQ
Compound: Lucifer Yellow CH dilithium salt [LY]

Detection of fenofibric acid (control of API degradation during lipolysis and sample storage) ([3]; UPLC-MS, all samples): no fenofibric acid could be detected
Compound: CC(C)(Oc1ccc(C(=O)c2ccc(Cl)cc2)cc1)C(=O)O [fenofibric acid]

Expected flux in vivo relative to flux over LiDo/Caco-2 ([3]; based on expected permeability in human small intestine): 10 fold
Flux of fenofibrate over LiDo relative to flux of cinnarizine over Permeapad ([3]; under comparable conditions, average, Permeapad data ref 40): 334 fold
Caco-2 permeability relative to LiDo after adjusting for filter porosity (ε) (Caco-2 monolayer): 1.8 fold
Ratio between Caco-2 and LiDo permeability (Caco-2 monolayer; uncorrected Papp): 0.42
Compound: CC(C)OC(=O)C(C)(C)Oc1ccc(C(=O)c2ccc(Cl)cc2)cc1 [fenofibrate]
Permeability (in words) [4]: highly permeable

Source: PMC7239831, “Suitability of Artificial Membranes in Lipolysis-Permeation Assays of Oral Lipid-Based Formulations” (Pharmaceutical Research, 2020)
